Experiments:
Experiment in all cases: NCI-60 SRB screening (one-dose and five-dose)
Assay type in all cases: cell-based, human
786-0 = settings: 48 h
Procedure, shortened: (§1)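 After a 48-h incubation with compound, cellular protein was stained with SRB and growth estimated by spectrophotometry relative to untreated controls.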

A549/ATCC = settings: 48 h
Procedure, shortened: as §1

ACHN = settings: 48 h
Procedure, shortened: as §1

CAKI-1 = settings: 48 h
Procedure, shortened: (§2)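 Growth inhibition is scored with sulforhodamine B after 48 h of continuous compound exposure. An MG_MID averages each parameter over the whole cell panel, insensitive lines being counted at the top tested concentration.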

CCRF-CEM = settings: 48 h
Procedure, shortened: as §2

DU-145 = settings: 48 h
Procedure, shortened: as §2

HCC-2998 = settings: 48 h
Procedure, shortened: as §2

HCT-116 = settings: 48 h
Procedure, shortened: as §1

HCT-15 = settings: 48 h
Procedure, shortened: as §1

HOP-62 = settings: 48 h
Procedure, shortened: as §1

HOP-92 = settings: 48 h
Procedure, shortened: as §2

HS 578T = settings: 48 h
Procedure, shortened: as §2

HT29 = settings: 48 h
Procedure, shortened: as §2

IGROV1 = settings: 48 h
Procedure, shortened: as §2

LOX IMVI = settings: 48 h
Procedure, shortened: (§3)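 Compounds were added at a single concentration and cultures incubated for 48 h. Growth was measured with sulforhodamine B protein staining, read spectrophotometrically and expressed as percent of untreated controls.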

MALME-3M = settings: 48 h
Procedure, shortened: as §1

MDA-MB-231/ATCC = settings: 48 h
Procedure, shortened: as §1

MDA-MB-435 = settings: 48 h
Procedure, shortened: as §1

MDA-MB-468 = settings: 48 h
Procedure, shortened: as §1

MOLT-4 = settings: 48 h
Procedure, shortened: as §3

NCI-H322M = settings: 48 h
Procedure, shortened: as §3

NCI-H522 = settings: 48 h
Procedure, shortened: as §3

OVCAR-3 = settings: 48 h
Procedure, shortened: as §1

OVCAR-5 = settings: 48 h
Procedure, shortened: as §1

OVCAR-8 = settings: 48 h
Procedure, shortened: as §2

RXF 393 = settings: 48 h
Procedure, shortened: as §3

SF-295 = settings: 48 h
Procedure, shortened: as §1

SF-539 = settings: 48 h
Procedure, shortened: as §1

SK-MEL-2 = settings: 48 h
Procedure, shortened: as §2

SK-MEL-5 = settings: 48 h
Procedure, shortened: as §1

SK-OV-3 = settings: 48 h
Procedure, shortened: as §1

SN12C = settings: 48 h
Procedure, shortened: as §3

SNB-19 = settings: 48 h
Procedure, shortened: as §1

SR = settings: Homo sapiens, five dose 0.01–100 μM, 48 h
Procedure, shortened: as §3

SW-620 = settings: 48 h
Procedure, shortened: as §1

T-47D = settings: 48 h
Procedure, shortened: as §2

TK-10 = settings: 48 h
Procedure, shortened: as §3

U251 = settings: 48 h
Procedure, shortened: as §3

UACC-257 = settings: 48 h
Procedure, shortened: as §1

UO-31 = settings: 48 h
Procedure, shortened: as §1

[1] = Homo sapiens, five dose 0.01–100 μM

Structure (SMILES): C[C@H]1[C@@H]2[C@H]3CC[C@@H]4[C@@]5(C)C/C(=C\c6cccnc6)C(=O)C(C)(C)[C@@H]5CC[C@@]4(C)[C@]3(C)CC[C@]23CO[C@@]1(C)[C@@H](C(=O)/C=C/c1cccnc1)C3 [Compound 6, 3-Oxo-2-(3-pyridinylidene)-21-[3-(2E-pyridinyl)-prop-2-en-1-one]-20β,28-epoxy-18α,19βH-ursane]
- Growth Percent (786-0; 786-0, 10 μM): −38.97%
- GI50 (786-0; Homo sapiens, 786-0, five dose 0.01–100 μM): 920 nM
- Growth Percent (A549/ATCC; 10 μM): −24.64%
- GI50 (A549/ATCC; [1]): 1270 nM
- Growth Percent (ACHN; 10 μM): −22.16%
- GI50 (ACHN; [1]): 1410 nM
- Growth Percent (CAKI-1; CAKI-1, 10 μM): 9.32%
- GI50 (CAKI-1; Homo sapiens, CAKI-1, five dose 0.01–100 μM): 1420 nM
- Growth Percent (CCRF-CEM; 10 μM): 17.92%
- GI50 (CCRF-CEM; [1]): 170 nM
- Growth Percent (DU-145; DU-145, 10 μM): −28.80%
- GI50 (DU-145; Homo sapiens, DU-145, five dose 0.01–100 μM): 930 nM
- Growth Percent (HCC-2998; HCC-2998, 10 μM): −67.18%
- GI50 (HCC-2998; Homo sapiens, HCC-2998, five dose 0.01–100 μM): 890 nM
- Growth Percent (HCT-116; HCT-116, 10 μM): −45.63%
- GI50 (HCT-116; Homo sapiens, HCT-116, five dose 0.01–100 μM): 230 nM
- Growth Percent (HCT-15; HCT-15, 10 μM): −15.30%
- GI50 (HCT-15; Homo sapiens, HCT-15, five dose 0.01–100 μM): 1110 nM
- Growth Percent (HOP-62; HOP-62, 10 μM): −13.55%
- GI50 (HOP-62; Homo sapiens, HOP-62, five dose 0.01–100 μM): 1560 nM
- Growth Percent (HOP-92; HOP-92, 10 μM): −19.97%
- GI50 (HOP-92; Homo sapiens, HOP-92, five dose 0.01–100 μM): 820 nM
- Growth Percent (HS 578T; 10 μM): 11.24%
- GI50 (HS 578T; [1]): 1440 nM
- Growth Percent (HT29; HT29, 10 μM): 26.36%
- GI50 (HT29; Homo sapiens, HT-29, HT29, five dose 0.01–100 μM): 1500 nM
- GI50 (IGROV1; Homo sapiens, IGROV-1, IGROV1, five dose 0.01–100 μM): 960 nM
- Growth Percent (IGROV1; IGROV1, 10 μM): 1.25%
- Growth Percent (LOX IMVI; 10 μM): −85.19%
- GI50 (LOX IMVI; [1]): 890 nM
- Growth Percent (MALME-3M; 10 μM): −33.54%
- GI50 (MALME-3M; [1]): 800 nM
- Growth Percent (MDA-MB-231/ATCC; 10 μM): −30.71%
- GI50 (MDA-MB-231/ATCC; [1]): 1030 nM
- GI50 (MDA-MB-435; Homo sapiens, MDA-MB-435, MDA-B-435, five dose 0.01–100 μM): 1090 nM
- Growth Percent (MDA-MB-435; MDA-MB-435, 10 μM): −7.30%
- GI50 (MDA-MB-468; Homo sapiens, MDA-MB-468, five dose 0.01–100 μM): 860 nM
- Growth Percent (MDA-MB-468; MDA-MB-468, 10 μM): −5.83%
- GI50 (MOLT-4; Homo sapiens, MOLT-4, five dose 0.01–100 μM): 170 nM
- Growth Percent (MOLT-4; MOLT-4, 10 μM): 16.72%
- Growth Percent (NCI-H322M; 10 μM): 46.39%
- GI50 (NCI-H322M; [1]): 1820 nM
- GI50 (NCI-H522; Homo sapiens, NCI-H522, five dose 0.01–100 μM): 1360 nM
- Growth Percent (NCI-H522; NCI-H522, 10 μM): −34.35%
- GI50 (OVCAR-3; Homo sapiens, OVCAR-3, five dose 0.01–100 μM): 880 nM
- Growth Percent (OVCAR-3; OVCAR-3, 10 μM): −43.66%
- GI50 (OVCAR-5; Homo sapiens, OVCAR-5, five dose 0.01–100 μM): 1460 nM
- Growth Percent (OVCAR-5; OVCAR-5, 10 μM): −4.00%
- GI50 (OVCAR-8; Homo sapiens, OVCAR-8, five dose 0.01–100 μM): 1600 nM
- Growth Percent (OVCAR-8; OVCAR-8, 10 μM): −13.55%
- GI50 (RXF 393; Homo sapiens, RXF 393, five dose 0.01–100 μM): 830 nM
- Growth Percent (RXF 393; RXF 393, 10 μM): −91.75%
- GI50 (SF-295; Homo sapiens, SF-295, five dose 0.01–100 μM): 1690 nM
- Growth Percent (SF-295; SF-295, 10 μM): 6.07%
- GI50 (SF-539; Homo sapiens, SF-539, five dose 0.01–100 μM): 1020 nM
- Growth Percent (SF-539; SF-539, 10 μM): −32.36%
- GI50 (SK-MEL-2; Homo sapiens, SK-MEL-2, five dose 0.01–100 μM): 1300 nM
- Growth Percent (SK-MEL-2; SK-MEL-2, 10 μM): −25.53%
- GI50 (SK-MEL-5; Homo sapiens, SK-MEL-5, five dose 0.01–100 μM): 820 nM
- Growth Percent (SK-MEL-5; SK-MEL-5, 10 μM): −82.25%
- GI50 (SK-OV-3; Homo sapiens, SK-OV-3, five dose 0.01–100 μM): 5900 nM
- Growth Percent (SK-OV-3; SK-OV-3, 10 μM): 58.93%
- Growth Percent (SN12C; 10 μM): −17.67%
- GI50 (SN12C; [1]): 940 nM
- GI50 (SNB-19; Homo sapiens, SNB-19, five dose 0.01–100 μM): 850 nM
- Growth Percent (SNB-19; SNB-19, 10 μM): 2.48%
- GI50 (SR): 160 nM
- GI50 (SW-620; Homo sapiens, SW-620, five dose 0.01–100 μM): 980 nM
- Growth Percent (SW-620; SW-620, 10 μM): −26.39%
- GI50 (T-47D; Homo sapiens, T47D, T -47D, five dose 0.01–100 μM): 1980 nM
- Growth Percent (T-47D; T-47D, 10 μM): 24.61%
- GI50 (TK-10; Homo sapiens, TK-10, five dose 0.01–100 μM): 1830 nM
- Growth Percent (TK-10; TK-10, 10 μM): −14.49%
- GI50 (U251; Homo sapiens, U-251, U251, five dose 0.01–100 μM): 1040 nM
- Growth Percent (U251; U251, 10 μM): −68.02%
- GI50 (UACC-257; Homo sapiens, UACC-257, five dose 0.01–100 μM): 1670 nM
- Growth Percent (UACC-257; UACC-257, 10 μM): 13.16%
- GI50 (UO-31; Homo sapiens, UO-31, five dose 0.01–100 μM): 640 nM
- Growth Percent (UO-31; UO-31, 10 μM): −97.34%

Source: paper PMC8509773, “3-Pyridinylidene Derivatives of Chemically Modified Lupane and Ursane Triterpenes as Promising Anticancer Agents by Targeting Apoptosis” (International Journal of Molecular Sciences, 2021)
